Like-named read-outs stand apart in the source and are kept apart here.
How the values were obtained:
adult male CF-1 mice [1] = experiment: 6 Hz 44 mA seizure test in mice; type: in vivo, mouse
[2] = system: adult Sprague-Dawley rats; experiment: Maximal electroshock; type: in vivo, rat; conditions: MES; for Efficacy in rats (number seizure protected /number tested): low dose i.p. (CLB 17, CBZ 3, VPA 165 mg/kg)
adult male CF-1 mice [3] = conditions: mouse, 6 Hz 44 mA, i.p.; cited from earlier work
[4] = system: adult Sprague-Dawley rats; conditions: rat, MES, i.p.; cited from earlier work
mice = conditions: mouse, cited from earlier work
rats = conditions: rat, cited from earlier work
[5] = Brain pharmacokinetics in mice
[6] = Brain pharmacokinetics in rats; conditions: rat
[7] = Plasma pharmacokinetics in mice; conditions: CF-1, mouse, in vivo, ip
[8] = Plasma pharmacokinetics in rats; conditions: Sprague Dawley, rat, in vivo, ip
adult CF-1 mice [9] = experiment: Maximal electroshock; type: in vivo, mouse; conditions: MES
[10] = CF-1, mouse, in vivo
[11] = CF-1, mouse, in vivo; remark: listed apart in the source
[12] = rat, in vivo
[13] = Sprague Dawley, rat, in vivo
adult CF-1 mice [14] = conditions: mouse, MES, i.p.; cited from earlier work
in vivo [15] = conditions: CF-1, mouse, ip
in vivo [16] = conditions: CF-1, mouse, ip; remark: listed apart in the source
in vivo [17] = conditions: Sprague Dawley, rat, ip
in vivo [18] = conditions: Sprague Dawley, rat, ip; remark: listed apart in the source
[19] = mouse, low dose i.p.: CLB 7, CBZ 7, VPA 260, LEV 20 mg/kg
[20] = low dose i.p.: CLB 17, CBZ 3, VPA 165, LEV 14 mg/kg

For CN1C(=O)CC(=O)N(c2ccccc2)c2cc(Cl)ccc21 [CLB, Clobazam], the “Efficacy in mice (number seizure protected/number tested)” value (adult male CF-1 mice [1]; high dose i.p. (CLB 17, VPA 570, LEV 500 mg/kg), time test 0.25 h) was 4/4, the “Efficacy in mice (number seizure protected/number tested)” value (adult male CF-1 mice [1]; high dose i.p. (CLB 17, VPA 570, LEV 500 mg/kg), time test 0.5 h) was 4/4 and the “Efficacy in mice (number seizure protected/number tested)” value (adult male CF-1 mice [1]; high dose i.p. (CLB 17, VPA 570, LEV 500 mg/kg), time test 1 h) was 3/4. The “Efficacy in mice (number seizure protected/number tested)” value (adult male CF-1 mice [1]; high dose i.p. (CLB 17, VPA 570, LEV 500 mg/kg), time test 2 h) was 3/4, the “Efficacy in mice (number seizure protected/number tested)” value (adult male CF-1 mice [1]; high dose i.p. (CLB 17, VPA 570, LEV 500 mg/kg), time test 4 h) was 1/4 and the “Efficacy in mice (number seizure protected/number tested)” value (adult male CF-1 mice [1]; high dose i.p. (CLB 17, VPA 570, LEV 500 mg/kg), time test 8 h) was 0/4. For the same molecule, the “Efficacy in mice (number seizure protected/number tested)” value (adult male CF-1 mice [1]; low dose i.p. (CLB 7, VPA 260, LEV 20 mg/kg), time test 0.25 h) was 2/4, the “Efficacy in mice (number seizure protected/number tested)” value (adult male CF-1 mice [1]; low dose i.p. (CLB 7, VPA 260, LEV 20 mg/kg), time test 0.5 h) was 1/4 and the “Efficacy in mice (number seizure protected/number tested)” value (adult male CF-1 mice [1]; low dose i.p. (CLB 7, VPA 260, LEV 20 mg/kg), time test 1 h) was 3/4. For the same molecule, the “Efficacy in mice (number seizure protected/number tested)” value (adult male CF-1 mice [1]; low dose i.p. (CLB 7, VPA 260, LEV 20 mg/kg), time test 2 h) was 0/4, the “Efficacy in mice (number seizure protected/number tested)” value (adult male CF-1 mice [1]; low dose i.p. (CLB 7, VPA 260, LEV 20 mg/kg), time test 4 h) was 0/4 and the “Efficacy in mice (number seizure protected/number tested)” value (adult male CF-1 mice [1]; low dose i.p. (CLB 7, VPA 260, LEV 20 mg/kg), time test 8 h) was 0/4. The “Efficacy in rats (number seizure protected /number tested)” value (“Efficacy in rats” below) ([2]; time test 0.25 h) was 0/4, the “Efficacy in rats” value ([2]; time test 0.5 h) was 0/4 and the “Efficacy in rats” value ([2]; time test 1 h) was 0/4. For the same molecule, the “Efficacy in rats” value ([2]; time test 2 h) was 0/4, the “Efficacy in rats” value ([2]; time test 4 h) was 0/4 and the “Efficacy in rats” value ([2]; time test 8 h) was 0/4. For the same molecule, the “Seizure protection (in words)” value ([2]; rats, high dose i.p. (CLB 37, VPA 315 mg/kg)) was “seizure protection was observed within the first hour”, the “Seizure protection (in words)” value ([2]; rats, low dose i.p. (CLB 17, VPA 165 mg/kg)) was “did not protect” and the “ED50 - low dose” value (adult male CF-1 mice [3]) was 7 mg/kg. The “ED50 - low dose” value [4] was 17 mg/kg, the “TD50 - high dose” value (mice; rotarod test, i.p.) was 17 mg/kg and the “TD50 - high dose” value (rats; minimum motor impairment test, i.p.) was 37 mg/kg. For the same molecule, the Tmax ([5]; CF-1, mouse, in vivo, ip) was 15 min, the “Brain AUC (0-8 hr)” value [5, 19] was 1.74 ng·h/mg and the “Brain Cmax” value [5, 19] was 2.26 ng/mg. For the same molecule, the “Brain Cmin” value [5, 19] was 0.014 ng/mg, the Tmax ([6]; Sprague Dawley, in vivo, ip) was 15 min and the “Brain AUC (0-8 hr)” value [6, 20] was 2.88 ng·h/mg. For the same molecule, the “Brain Cmax” value [6, 20] was 2.90 ng/mg, the “Brain Cmin” value [6, 20] was 0.027 ng/mg and the Tmax [7] was 15 min. For the same molecule, the Tmax [8] was 15 min.
With NC(=O)N1c2ccccc2C=Cc2ccccc21 [CBZ, carbamazepine] the “Efficacy in mice (number seizure protected/number tested)” value (adult CF-1 mice [9]; high dose i.p. (CBZ 40 mg/kg), time test 0.25 h) was 4/4, the “Efficacy in mice (number seizure protected/number tested)” value (adult CF-1 mice [9]; high dose i.p. (CBZ 40 mg/kg), time test 0.5 h) was 4/4 and the “Efficacy in mice (number seizure protected/number tested)” value (adult CF-1 mice [9]; high dose i.p. (CBZ 40 mg/kg), time test 1 h) was 4/4. The “Efficacy in mice (number seizure protected/number tested)” value (adult CF-1 mice [9]; high dose i.p. (CBZ 40 mg/kg), time test 2 h) was 4/4, the “Efficacy in mice (number seizure protected/number tested)” value (adult CF-1 mice [9]; high dose i.p. (CBZ 40 mg/kg), time test 4 h) was 4/4 and the “Efficacy in mice (number seizure protected/number tested)” value (adult CF-1 mice [9]; high dose i.p. (CBZ 40 mg/kg), time test 8 h) was 0/4. For the same molecule, the “Efficacy in mice (number seizure protected/number tested)” value (adult CF-1 mice [9]; low dose i.p. (CBZ 7 mg/kg), time test 0.25 h) was 3/4, the “Efficacy in mice (number seizure protected/number tested)” value (adult CF-1 mice [9]; low dose i.p. (CBZ 7 mg/kg), time test 0.5 h) was 3/4 and the “Efficacy in mice (number seizure protected/number tested)” value (adult CF-1 mice [9]; low dose i.p. (CBZ 7 mg/kg), time test 1 h) was 2/4. The “Efficacy in mice (number seizure protected/number tested)” value (adult CF-1 mice [9]; low dose i.p. (CBZ 7 mg/kg), time test 2 h) was 0/4, the “Efficacy in mice (number seizure protected/number tested)” value (adult CF-1 mice [9]; low dose i.p. (CBZ 7 mg/kg), time test 4 h) was 0/4 and the “Efficacy in mice (number seizure protected/number tested)” value (adult CF-1 mice [9]; low dose i.p. (CBZ 7 mg/kg), time test 8 h) was 0/4. For the same molecule, the “Seizure protection (in words)” value (adult CF-1 mice [9]; mice, high dose CBZ 40 mg/kg i.p.) was “complete protection”, the “Efficacy in rats” value ([2]; time test 0.25 h) was 1/4 and the “Efficacy in rats” value ([2]; time test 0.5 h) was 1/4. The “Efficacy in rats” value ([2]; time test 1 h) was 0/4, the “Efficacy in rats” value ([2]; time test 2 h) was 0/4 and the “Efficacy in rats” value ([2]; time test 4 h) was 0/4. For the same molecule, the “Efficacy in rats” value ([2]; time test 8 h) was 0/4, the “Period for which 100% seizure protection was sustained” value ([2]; rats, high-dose CBZ i.p.) was ~ 2 hrs and the Seizure protection ([2]; rats, high-dose CBZ i.p.) was 100%. For the same molecule, the “Seizure protection (% protected)” value ([2]; rats, low-dose CBZ i.p., within the first hour) was 25%, the “High-dose exposures greater than expected from low-dose” value [10] was 50 - 60% and the “Plasma Dose Prop (AUC)” value [10] was 1.49. For the same molecule, the “Plasma Dose Prop (Cmax)” value [10] was 0.917, the “Plasma t1/2” value ([10]; ip) was 66.6 min and the “Brain Dose Prop (AUC)” value [11] was 1.64. For the same molecule, the “Brain t1/2” value ([11]; ip) was 59.4 min, the “Plasma Dose Prop (AUC)” value ([12]; Sprague Dawley) was 2.29 and the “Plasma Dose Prop (Cmax)” value ([12]; Sprague Dawley) was 1.138. The “Plasma t1/2” value ([12]; Sprague Dawley, ip) was 70.8 min, the “High-dose concentrations relative to expected from low-dose” value [12] was “approximately two-fold” and the “Brain Dose Prop (AUC)” value [13] was 1.89. For the same molecule, the “Brain t1/2” value ([13]; ip) was 72 min, the “ED50 - low dose” value (adult CF-1 mice [14]) was 7 mg/kg and the “ED50 - low dose” value [4] was 3 mg/kg. For the same molecule, the Tmax (in vivo [15]) was 15 min, the half-life (in vivo [15]; Plasma t1/2) was 78 min and the Tmax (in vivo [16]) was 15 min. It also gave a half-life (in vivo [16]; Brain t1/2) of 31.2 min, a Tmax (in vivo [17]) of 15 min and a half-life (in vivo [17]; Plasma t1/2) of 49.2 min. For the same molecule, the Tmax (in vivo [18]) was 15 min, the half-life (in vivo [18]; Brain t1/2) was 46.2 min and the “TD50 - high dose” value (mice; in vivo, ip) was 40 mg/kg. The “TD50 - high dose” value (rats; in vivo, ip) was 24 mg/kg.
